The target in one assay is T1, HCV NS3 protease WT 1b (Hepatitis C virus genotype 1b, UniProt P26663).
T1 construct: The single-chain proteolytic domain (NS4A21-32-GSGS-NS33-631) was cloned into pET-14b; His tag (own knowledge of vector pET-14b); made in house; host or cells: Escherichia coli BL21
The assay is described as follows: MALDI MS of intact HCV protease 1b WT incubated with compound. The conditions noted are these: WT 1b, 1 HR. In kind it is binding. The procedure: Intact HCV (protease) 1bWT was incubated for 1 hr at a 10× fold excess of XVI-26 to protein. 3 ul aliquots of the samples were diluted with 10 ul of 0.1% TFA prior to micro C4 ZipTipping directly onto the MALDI target using Sinapinic acid as the desorption matrix (10 mg/mL in 0.1% TFA:Acetonitrile 50:50). […] Due to likely protein misfolding during protein purification, a small portion of the misfolded protein was not modified.
In order to determine whether the modification of the protein occurred at lysine, the pH from the above experiment was increased from 7.4 to 10.0. Because the compound lysine adduct would be an amide any increase in pH would have minimal effect on the modified protein. If however, the modification occurred at cysteine the resultant thioester bond would be unstable and the compound would hydrolyze off the protein.
Intact HCV (protease) 1bWT, C159S, and C159S/K136A were incubated for 1 hr at a 10× fold excess of XVI-26 to protein. 3 μl aliquots of the samples were diluted with 10 μl of 0.1% TFA prior to micro C4 ZipTipping directly onto the MALDI target using Sinapinic acid as the desorption matrix (10 mg/mL in 0.1% TFA:Acetonitrile 50:50).
Intact HCV (protease) WT1b was incubated for 1 hr at a 10× fold excess of XVI-1 (mw=782.87) to protein. 3 μl aliquots of the samples were diluted with 10 μl of 0.1% TFA prior to micro C4 ZipTipping directly onto the MALDI target using Sinapinic acid as the desorption matrix (10 mg/mL in 0.1% TFA:Acetonitrile 50:50). […] Due to some protein misfolding during the purification of the protein, the unfolded portion of the protein can not react with XVI-1.

The target of assay [1] is T2, HCV NS3/4A 1b protease enzyme (wild type) (Hepatitis C virus genotype 1b, UniProt P26663).
T2 construct: 10× stocks of NS3/4A protease enzyme from Bioenza (Mountain View, Calif.); purchased Bioenza
The assay is described as follows: HCV protease FRET assay (IC50_APP), wild type NS3/4A 1b. In kind it is biochemical. The procedure: HCV Protease FRET Assay for WT and Mutated NS3/4A 1b Enzymes (IC50_APP).
The following protocol was used to generate “apparent” IC50 (IC50_APP) values as depicted in Table 6, below. Without wishing to be bound by any particular theory, it is believed that IC50_APP, contrasted with IC50 values, may provide a more useful indication of time-dependent inhibition, and are thus more representative of binding affinity. […] 5 μL of each enzyme were added to Corning (#3575) 384-well, black, microtiter plates (Corning, N.Y.) after spotting a 0.5 μL volume of 50% DMSO and serially diluted compounds prepared in 50% DMSO. Protease reactions were immediately started after enzyme addition with the addition of 45 μL of the FRET substrate and monitored for 60-90 minutes at λex485/λem520 in a Synergy plate reader from BioTek (Winooski, Vt.). At the conclusion of each assay, progress curves from each well were examined for linear reaction kinetics and fit statistics (R^2, 95% confidence intervals, absolute sum of squares). Initial velocity (0 minutes to 15+ minutes) from each reaction was determined from the slope of a plot of relative fluorescence units vs time (minutes) and then plotted against inhibitor concentration as a percent of the no inhibitor and no enzyme controls to estimate apparent IC50 from log [Inhibitor] vs Response. (Variable Slope model in GraphPad Prism from GraphPad Software (San Diego, Calif.).)

`C=C[C@@H]1C[C@]1(NC(=O)[C@@H]1C[C@@H](OC(=O)N2Cc3cccc(F)c3C2)CN1C(=O)[C@H](CNC(=O)c1coc(C(C)=O)c1)NC(=O)OC(C)(C)C)C(=O)NS(=O)(=O)C1CC1` [XVI-5]: at HCV NS3 protease WT 1b, the “MS_HCVNS3_INTACT_NS3 WT 1b 1 HR” value is “K (≤30% modification)”. Besides, the IC50 (in general, the concentration that inhibits the measured activity by half) in assay [1] was 100 to 1000 nM.
On to `C=C[C@@H]1C[C@]1(NC(=O)[C@@H]1CC(Oc2nccc3cc(OC)ccc23)CN1C(=O)[C@H](CC(=O)N1C[C@H]2C[C@@H]1C(=O)O2)NC(=O)OC(C)(C)C)C(=O)NS(=O)(=O)C1CC1` (stereo partly shown) [XVI-6], for which the “MS_HCVNS3_INTACT_NS3 WT 1b 1 HR” value at HCV NS3 protease WT 1b is “H (>50% and ≤70% modification)”. For the same compound, in assay [1], the half-maximal inhibitory concentration (IC50) was in the range of 1 to 10 nM.
As for `C=C[C@@H]1C[C@]1(NC(=O)[C@@H]1CC(Oc2nccc3cc(OC)ccc23)CN1C(=O)[C@H](CC(=O)N1C[C@@H]2C[C@H]1C(=O)O2)NC(=O)OC(C)(C)C)C(=O)NS(=O)(=O)C1CC1` (stereo partly shown) [XVI-7], on HCV NS3 protease WT 1b, the “MS_HCVNS3_INTACT_NS3 WT 1b 1 HR” value was “H (>50% and ≤70% modification)”. In addition, the 50% inhibitory concentration (IC50) in assay [1] lay within 1 to 10 nM.
For the compound `C=C[C@@H]1C[C@]1(NC(=O)[C@@H]1CC(Oc2nccc3cc(OC)ccc23)CN1C(=O)[C@H](CCC(=O)N1C[C@H]2C[C@@H]1C(=O)O2)NC(=O)OC(C)(C)C)C(=O)NS(=O)(=O)C1CC1` (stereo partly shown) [XVI-8], the “MS_HCVNS3_INTACT_NS3 WT 1b 1 HR” value at HCV NS3 protease WT 1b is “G (>70% modification)”. In addition, the IC50 in assay [1] was below 1 nM.
With `C=C[C@@H]1C[C@]1(NC(=O)[C@@H]1CC(Oc2nccc3cc(OC)ccc23)CN1C(=O)[C@H](CCC(=O)N1C[C@@H]2C[C@H]1C(=O)O2)NC(=O)OC(C)(C)C)C(=O)NS(=O)(=O)C1CC1` (stereo partly drawn) [XVI-9, tert-butyl(2S)-1-((2S)-2-((1R,2S)-1-(cyclopropylsulfonylcarbamoyl)-2-vinylcyclopropylcarbamoyl)-4-(6-methoxyisoquinolin-1-yloxy)pyrrolidin-1-yl)-1,5-dioxo-5-((1S,4S)-3-oxo-2-oxa-5-azabicyclo[2.2.1]heptan-5-yl)pentan-2-ylcarbamate], the “MS_HCVNS3_INTACT_NS3 WT 1b 1 HR” value at HCV NS3 protease WT 1b was “H (>50% and ≤70% modification)”. The IC50 in assay [1] was below 1 nM.
Regarding `C=C[C@@H]1C[C@]1(NC(=O)[C@@H]1CC(OC(=O)N2Cc3cccc(F)c3C2)CN1C(=O)[C@H](CC(=O)N1C[C@H]2C[C@@H]1C(=O)O2)NC(=O)OC(C)(C)C)C(=O)NS(=O)(=O)C1CC1` (stereo partly drawn) [XVI-14, (5S)-1-((S)-2-(tert-butoxycarbonylamino)-4-oxo-4-((1R,4R)-3-oxo-2-oxa-5-azabicyclo[2.2.1]heptan-5-yl)butanoyl)-5-((1R,2S)-1-(cyclopropylsulfonylcarbamoyl)-2-vinylcyclopropylcarbamoyl)pyrrolidin-3-yl 4-fluoroisoindoline-2-carboxylate], the “MS_HCVNS3_INTACT_NS3 WT 1b 1 HR” value on HCV NS3 protease WT 1b was “H (>50% and ≤70% modification)”. In addition, the half-inhibitory concentration (IC50) in assay [1] is below 1 nM.
For `C=C[C@@H]1C[C@]1(NC(=O)[C@@H]1CC(OC(=O)N2Cc3cccc(F)c3C2)CN1C(=O)[C@H](CC(=O)N1C[C@@H]2C[C@H]1C(=O)O2)NC(=O)OC(C)(C)C)C(=O)NS(=O)(=O)C1CC1` (stereo partly drawn) [XVI-15, (5S)-1-((S)-2-(tert-butoxycarbonylamino)-4-oxo-4-((1S,4S)-3-oxo-2-oxa-5-azabicyclo[2.2.1]heptan-5-yl)butanoyl)-5-((1R,2S)-1-(cyclopropylsulfonylcarbamoyl)-2-vinylcyclopropylcarbamoyl)pyrrolidin-3-yl 4-fluoroisoindoline-2-carboxylate], the “MS_HCVNS3_INTACT_NS3 WT 1b 1 HR” value at HCV NS3 protease WT 1b is “H (>50% and ≤70% modification)”. Also, in assay [1], the IC50 is below 1 nM.
Regarding `C=C[C@@H]1C[C@]1(NC(=O)[C@@H]1CC(OC(=O)N2Cc3cccc(F)c3C2)CN1C(=O)[C@H](CCC(=O)N1C[C@H]2C[C@@H]1C(=O)O2)NC(=O)OC(C)(C)C)C(=O)NS(=O)(=O)C1CC1` (stereo partly drawn) [XVI-16, (5S)-1-((S)-2-(tert-butoxycarbonylamino)-5-oxo-5-((1R,4R)-3-oxo-2-oxa-5-azabicyclo[2.2.1]heptan-5-yl)pentanoyl)-5-((1R,2S)-1-(cyclopropylsulfonylcarbamoyl)-2-vinylcyclopropylcarbamoyl)pyrrolidin-3-yl 4-fluoroisoindoline-2-carboxylate], on HCV NS3 protease WT 1b, the “MS_HCVNS3_INTACT_NS3 WT 1b 1 HR” value is “H (>50% and ≤70% modification)”. Further, in assay [1], the half-inhibitory concentration (IC50) is below 1 nM.
Turning to `C=C[C@@H]1C[C@]1(NC(=O)[C@@H]1CC(OC(=O)N2Cc3cccc(F)c3C2)CN1C(=O)[C@H](CCC(=O)N1C[C@@H]2C[C@H]1C(=O)O2)NC(=O)OC(C)(C)C)C(=O)NS(=O)(=O)C1CC1` (stereo partly drawn) [XVI-17, (5S)-1-((S)-2-(tert-butoxycarbonylamino)-5-oxo-5-((1S,4S)-3-oxo-2-oxa-5-azabicyclo[2.2.1]heptan-5-yl)pentanoyl)-5-((1R,2S)-1-(cyclopropylsulfonylcarbamoyl)-2-vinylcyclopropylcarbamoyl)pyrrolidin-3-yl 4-fluoroisoindoline-2-carboxylate], the “MS_HCVNS3_INTACT_NS3 WT 1b 1 HR” value on HCV NS3 protease WT 1b was “G (>70% modification)”. The IC50 in assay [1] is below 1 nM.
As to `C=C[C@@H]1C[C@]1(NC(=O)[C@@H]1CC(Oc2cc(-c3ccccc3)nc3cc(OC)ccc23)CN1C(=O)[C@H](CNC(=O)[C@@H]1CCC(=O)O1)NC(=O)OC(C)(C)C)C(=O)NS(=O)(=O)C1CC1` (stereo partly drawn) [XVI-24, tert-butyl(2S)-1-((2S)-2-((1R,2S)-1-(cyclopropylsulfonylcarbamoyl)-2-vinylcyclopropylcarbamoyl)-4-(7-methoxy-2-phenylquinolin-4-yloxy)pyrrolidin-1-yl)-1-oxo-3-((S)-5-oxotetrahydrofuran-2-carboxamido)propan-2-ylcarbamate], the “MS_HCVNS3_INTACT_NS3 WT 1b 1 HR” value on HCV NS3 protease WT 1b is listed as “K (≤30% modification)”. For the same compound, the IC50 in assay [1] was 1 to 10 nM.
On the same counts, the results for `C=C[C@@H]1C[C@]1(NC(=O)[C@@H]1CC(OC(=O)N2Cc3cccc(F)c3C2)CN1C(=O)[C@H](COC(=O)N[C@@H]1C(=O)O[C@@H]1C)NC(=O)OC(C)(C)C)C(=O)NS(=O)(=O)C1CC1` (stereo partly drawn) [XVI-25, (5S)-1-((S)-2-(tert-butoxycarbonylamino)-3-((2R,3S)-2-methyl-4-oxooxetan-3-ylcarbamoyloxy)propanoyl)-5-((1R,2S)-1-(cyclopropylsulfonylcarbamoyl)-2-vinylcyclopropylcarbamoyl)pyrrolidin-3-yl 4-fluoroisoindoline-2-carboxylate] are “K (≤30% modification)” and below 1 nM.

For the origin of these results see patent US11542492B2 (Celgene CAR LLC, priority 2009, dated 2023).
